According to ChEMBL document CHEMBL1137640, “In vitro antimycobacterial spectrum of a diarylquinoline ATP synthase inhibitor” (2007):
Converted amounts (≈) assume the structure as drawn.

Experiments:
Assay type in all cases: functional
Mycobacterium szulgai = assay: Antimicrobial activity against Mycobacterium szulgai after 2 to 4 weeks by two fold dilution method
[1] = test system: Mycobacterium avium complex sp.; assay: Antimicrobial activity against Mycobacterium avium complex isolate after 2 to 4 weeks by two fold dilution method
Mycobacterium shimoidei = assay: Antimicrobial activity against Mycobacterium shimoidei after 2 to 4 weeks by two fold dilution method
Mycobacterium avium [2] = assay: Antimicrobial activity against Mycobacterium avium 11 after 2 to 4 weeks by two fold dilution method
Mycobacterium avium [3] = assay: Antimicrobial activity against Mycobacterium avium 8 after 2 to 4 weeks by two fold dilution method
Mycobacterium avium [4] = assay: Antimicrobial activity against Mycobacterium avium 4 after 2 to 4 weeks by two fold dilution method
Mycobacterium avium [5] = assay: Antimicrobial activity against Mycobacterium avium 6 after 2 to 4 weeks by two fold dilution method
[6] = test system: Mycolicibacterium fortuitum; assay: Antimicrobial activity against Mycobacterium fortuitum after 2 to 4 weeks by two fold dilution method
Mycobacterium simiae = assay: Antimicrobial activity against Mycobacterium simiae after 2 to 4 weeks by two fold dilution method
Mycobacterium avium [7] = assay: Antimicrobial activity against Mycobacterium avium 23 after 2 to 4 weeks by two fold dilution method
Mycobacterium xenopi = assay: Antimicrobial activity against Mycobacterium xenopi after 2 to 4 weeks by two fold dilution method
Mycobacterium avium [8] = assay: Antimicrobial activity against Mycobacterium avium 21 after 2 to 4 weeks by two fold dilution method
Mycobacterium conspicuum = assay: Antimicrobial activity against Mycobacterium conspicuum after 2 to 4 weeks by two fold dilution method
Mycobacterium malmoense = assay: Antimicrobial activity against Mycobacterium malmoense after 2 to 4 weeks by two fold dilution method
[9] = test system: Mycobacterium tuberculosis; assay: Antimicrobial activity against drug-susceptible Mycobacterium tuberculosis isolate after 2 to 4 weeks by two fold dilution method
Mycobacterium avium [10] = assay: Antimicrobial activity against Mycobacterium avium 1 after 2 to 4 weeks by two fold dilution method
Mycobacterium avium [11] = assay: Antimicrobial activity against Mycobacterium avium 2 after 2 to 4 weeks by two fold dilution method
Mycobacterium avium [12] = assay: Antimicrobial activity against Mycobacterium avium 9 after 2 to 4 weeks by two fold dilution method
Mycobacterium gordonae = assay: Antimicrobial activity against Mycobacterium gordonae after 2 to 4 weeks by two fold dilution method
Mycobacterium avium [13] = assay: Antimicrobial activity against Mycobacterium avium 16 after 2 to 4 weeks by two fold dilution method
Mycolicibacterium vaccae = assay: Antimicrobial activity against Mycobacterium vaccae after 2 to 4 weeks by two fold dilution method
Mycobacterium kansasii = assay: Antimicrobial activity against Mycobacterium kansasii after 2 to 4 weeks by two fold dilution method
[14] = test system: Mycobacterium scrofulaceum; assay: Antimicrobial activity against Mycobacterium scrofulaceum after 2 to 4 weeks by two fold dilution method
[15] = test system: Mycolicibacterium novocastrense; assay: Antimicrobial activity against R207910 resistant Mycobacterium novocastrense after 2 to 4 weeks by two fold dilution method
Mycobacteroides chelonae = assay: Antimicrobial activity against Mycobacterium chelonae after 2 to 4 weeks by two fold dilution method
[16] = test system: Mycobacterium intracellulare; assay: Antimicrobial activity against Mycobacterium intracellular 14 after 2 to 4 weeks by two fold dilution method
Mycolicibacterium phlei = assay: Antimicrobial activity against Mycobacterium phlei after 2 to 4 weeks by two fold dilution method
[17] = test system: Mycobacterium intracellulare; assay: Antimicrobial activity against Mycobacterium intracellular 7 after 2 to 4 weeks by two fold dilution method
[18] = test system: Mycolicibacterium mageritense; assay: Antimicrobial activity against Mycobacterium mageritense after 2 to 4 weeks by two fold dilution method
Mycolicibacter hiberniae = assay: Antimicrobial activity against Mycobacterium hiberniae after 2 to 4 weeks by two fold dilution method
[19] = test system: Mycobacterium intracellulare; assay: Antimicrobial activity against Mycobacterium intracellular 20 after 2 to 4 weeks by two fold dilution method
[20] = test system: Mycobacterium interjectum; assay: Antimicrobial activity against Mycobacterium interjectum after 2 to 4 weeks by two fold dilution method
Mycolicibacter terrae = assay: Antimicrobial activity against Mycobacterium terrae after 2 to 4 weeks by two fold dilution method
[21] = Mycobacterium avium complex sp.

COc1nc2ccc(Br)cc2cc1[C@@H](c1ccccc1)[C@@](O)(CCN(C)C)c1cccc2ccccc12 [BEDAQUILINE]
MIC (Mycobacterium szulgai): 0.03 µg/mL (≈ 0.054 µM) | MI50 [1]: 0.03 µg/mL | MIC [1, 21]: 0.03 µg/mL (≈ 0.054 µM) | MIC90 [1, 21]: 0.13 µg/mL (≈ 0.234 µM) | MIC (Mycobacterium shimoidei): 8 µg/mL (≈ 14.4 µM) | MIC (Mycobacterium avium [2]): 0.03 µg/mL (≈ 0.054 µM) | MIC (Mycobacterium avium [3]): 0.03 µg/mL (≈ 0.054 µM) | MIC (Mycobacterium avium [4]): 0.03 µg/mL (≈ 0.054 µM) | MIC (Mycobacterium avium [5]): 0.13 µg/mL (≈ 0.234 µM) | MIC [6]: 0.13 µg/mL (≈ 0.234 µM) | MIC (Mycobacterium simiae): 0.03 µg/mL (≈ 0.054 µM) | MIC (Mycobacterium avium [7]): 0.03 µg/mL (≈ 0.054 µM) | MIC (Mycobacterium xenopi): 4 µg/mL (≈ 7.2 µM) | MIC (Mycobacterium avium [8]): 0.03 µg/mL (≈ 0.054 µM) | MIC (Mycobacterium conspicuum): 0.13 µg/mL (≈ 0.234 µM) | MIC (Mycobacterium malmoense): 0.5 µg/mL (≈ 0.9 µM) | MIC [9]: 0.002 µg/mL (≈ 0.0036 µM) | MIC50 [9]: 0.03 µg/mL (≈ 0.054 µM) | MIC90 [9]: 0.06 µg/mL (≈ 0.108 µM) | MIC (Mycobacterium avium [10]): 0.03 µg/mL (≈ 0.054 µM) | MIC (Mycobacterium avium [11]): 0.03 µg/mL (≈ 0.054 µM) | MIC (Mycobacterium avium [12]): 0.13 µg/mL (≈ 0.234 µM) | MIC (Mycobacterium gordonae): 0.03 µg/mL (≈ 0.054 µM) | MIC (Mycobacterium avium [13]): 0.06 µg/mL (≈ 0.108 µM) | MIC (Mycolicibacterium vaccae): 0.03 µg/mL (≈ 0.054 µM) | MIC (Mycobacterium kansasii): 0.03 µg/mL (≈ 0.054 µM) | MIC [14]: 0.03 µg/mL (≈ 0.054 µM) | MIC [15]: 8 µg/mL (≈ 14.4 µM) | MIC (Mycobacteroides chelonae): 0.06 µg/mL (≈ 0.108 µM) | MIC [16]: 0.03 µg/mL (≈ 0.054 µM) | MIC (Mycolicibacterium phlei): 0.03 µg/mL (≈ 0.054 µM) | MIC [17]: 0.03 µg/mL (≈ 0.054 µM) | MIC [18]: 0.03 µg/mL (≈ 0.054 µM) | MIC (Mycolicibacter hiberniae): 0.03 µg/mL (≈ 0.054 µM) | MIC [19]: 0.03 µg/mL (≈ 0.054 µM) | MIC [20]: 0.03 µg/mL (≈ 0.054 µM) | MIC (Mycolicibacter terrae): 0.03 µg/mL (≈ 0.054 µM)
